Measured values as given in US10703733B2, “MCL-1 inhibitors” (Gilead Sciences, Inc., priority 2018, dated 2020).
Read-outs that look alike come from different tables or passages of the source.

Columns and labels:
[1] = system: SKBR3 cells; assay: SKBR3 Cell Viability Assay (CellTiter Glo); assay type: cell-based; settings: CellTiter Glo luminescence, read-out: MCL-1 CV SKBR3 EC50
Protocol: SKBR3 Cell Viability Assay Materials
SKBR3 Cells (ATCC HTB-30) were obtained from ATCC (Manassas, Va.) and cultured in McCoy 5A's medium (ATCC 30-2007)+10% fetal bovine serum (SH30071.03, HyClone, Pittsburgh, Pa.) plus 1× Penicillin-Streptomycin L-glutamine (Corning 30-009-C1, Corning, N.Y.)).
The cell viability assay was conducted in a 384-well tissue culture plate (Grenier 781086, Monroe, N.C.) in a total volume of 70 μL. Test compounds were prepared in 1,000×, serially diluted, and pre-spotted into 384-well tissue culture plate by Echo 555 Liquid Handler (Labcyte Inc., San Jose, Calif.). Seventy μl of 6,000 SKBR3 cells were dispensed into each well of the plate and incubated at 37° C. with 5% CO2 for 72 hours. At the end of incubation, 2× CellTiter Glo (CTG) reagents (1 part buffer with 2 parts substrate) (Promega, Madison, Wis.) were prepared, and the plate and the reagent were equilibrated to room temperature for 30 minutes. CTG reagent was added to each plate by Biomek FX at 20 μL/well with 5 times pipetting and mixing to induce cell lysis. Luminescence was read by Envision multimode reader (PerkinElmer). […] Percent inhibition was calculated as followed: % Inhibition=100%*(Well−Neg)/(Pos−Neg) Neg, negative control, DMSO Pos, positive control, 10 μM Puromycin

[2] = biological target: MCL-1/Bim interaction (recombinant human MCL-1 protein, residues 171-327; biotinylated human Bim peptide, residues 51-76) (Homo sapiens (Human), UniProt Q07820); assay: MCL-1/Bim Binding AlphaLISA Assay; settings: 0.0625 nM 6xHis-Mcl-1 (171-327), 0.0625 nM biotinylated-Bim peptide
Protocol: MCL-1/Bim Binding AlphaLISA Assay.
Inhibition of the MCL-1 and Bim interaction was measured in the following AlphaLISA assay.
Recombinant human MCL-1 protein (C-terminal 6×His Tagged Mcl-1 containing residues 171-327) was generated at Gilead Sciences, Inc. (Foster City, Calif.). A biotinylated peptide derived from human Bim (residues 51-76) was purchased from CPC Scientific (Sunnyvale, Calif.). (CPC 834113). AlphaLISA anti-6His-acceptor beads (AL128R), AlphaScreen Streptavidin donor beads (6760002B), and Proxiplate-384 Plus (6008289) were purchased from PerkinElmer.
The AlphaLISA assay was performed in a 384-well Proxiplate in a total volume of […]. The reaction mixture contained 0.0625 nM 6×His-Mcl-1 (171-327), 0.0625 nM biotinylated-Bim peptide, 10 μg/mL AlphaLISA anti-6×His-AlphaLISA acceptor beads, […] AlphaScreen streptavidin donor beads, and serially diluted test compounds in the binding buffer (20 mM Hepes, pH 7.5 (Teknova H1035); 150 mM NaCl (Promega V4221); 0.002% Brij 35 (Thermo Scientific 20150); 1 mM Dithiothreitol (DTT) Solution (Affymetrix 70726); 0.01% BSA (BioLabs B9000S)). 1,000×test compounds were pre-spotted onto 384-well Proxiplate (Labcyte Echo) by Echo 555 Liquid Handler (Labcyte Inc., San Jose, Calif.) followed by incubation of 5 μl Mcl-1(171-327) for 1 hour. Then 5 μL Bim (51-76) was added and incubated for 2 hours. Five μL AlphaLISA anti-6His-AlphaLISA acceptor beads were then added for 1 hour followed by addition of 5 μL AlphaScreen streptavidin donor beads for 1 hour. The reaction plates were then read on an Envision multimode reader (PerkinElmer) using AlphaScreen settings. […] Percent inhibition was calculated as shown below: % Inhibition=100%*(Well−Neg)/(Pos−Neg) Neg: negative control, DMSO Pos: positive control, no Mcl-1 protein, no biotinylated-Bim peptide

Chain of MCL-1/Bim interaction (recombinant human MCL-1 protein, residues 171-327; biotinylated human Bim peptide, residues 51-76) (Q07820 171-327): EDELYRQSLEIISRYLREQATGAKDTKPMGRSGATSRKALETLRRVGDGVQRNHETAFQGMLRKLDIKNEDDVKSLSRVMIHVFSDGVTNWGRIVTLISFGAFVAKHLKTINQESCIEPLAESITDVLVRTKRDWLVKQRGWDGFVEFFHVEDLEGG

Structure (SMILES)	EC50 ([1]; Homo sapiens, SK-BR-3, 72 h) [nM]	IC50 [2] [nM]	EC50 ([1]; 72 hours) [nM]
CO[C@H]1/C=C/CCC[S@@](=O)(NC(=O)CCc2ccnn2CC(F)(F)F)=NC(=O)c2ccc3c(c2)N(C[C@@H]2CC[C@H]21)C[C@@]1(CCCc2cc(Cl)ccc21)CO3 [Example 92]	245	0.1	
COC(=O)N1CCN(C(=O)N[S@@]2(=O)=NC(=O)c3ccc4c(c3)N(C[C@@H]3CC[C@H]3[C@@H](OC)/C=C/C[C@H](C)C2)C[C@@]2(CCCc3cc(Cl)ccc32)CO4)CC1 [Example 245]	60.7	0.066	
CO[C@H]1/C=C/CCC[S@@](=O)(NC(=O)CCc2c(C)cnn2C)=NC(=O)c2ccc3c(c2)N(C[C@@H]2CC[C@H]21)C[C@@]1(CCCc2cc(Cl)ccc21)CO3 [Example 103]	10000	1	
CO[C@H]1/C=C/CCC[S@@](=O)(NC(=O)CCc2ccccc2)=NC(=O)c2ccc3c(c2)N(C[C@@H]2CC[C@H]21)C[C@@]1(CCCc2cc(Cl)ccc21)CO3 [Example 97]	788	0.6	
CO[C@H]1/C=C/C[C@H](C)C[S@@](=O)(NC(=O)N2CCC(C(F)F)CC2)=NC(=O)c2ccc3c(c2)N(C[C@@H]2CC[C@H]21)C[C@@]1(CCCc2cc(Cl)ccc21)CO3 [Example 258]	195	0.117	
CO[C@H]1/C=C/C[C@H](C)C[S@@](=O)(NC(=O)N2CC3(CN(C)C(=O)O3)C2)=NC(=O)c2ccc3c(c2)N(C[C@@H]2CC[C@H]21)C[C@@]1(CCCc2cc(Cl)ccc21)CO3 [Example 272]	47.9	0.018	
CCC(=O)N[S@]1(=O)=NC(=O)c2ccc3c(c2)N(C[C@@H]2CC[C@H]2[C@@H](OC)/C=C/CC[C@H]1CC)C[C@@]1(CCCc2cc(Cl)ccc21)CO3 [Example 64]		5.2	5830
CO[C@H]1/C=C/C[C@H](C)C[S@@](=O)(NC(=O)N[C@H]2CC23CCOC3)=NC(=O)c2ccc3c(c2)N(C[C@@H]2CC[C@H]21)C[C@@]1(CCCc2cc(Cl)ccc21)CO3 (single isomer, unassigned) [Example 341]	39.4	0.032	
CO[C@H]1/C=C/C[C@H](C)C[S@@](=O)(NC(=O)N2CC(C)(OC)C2)=NC(=O)c2ccc3c(c2)N(C[C@@H]2CC[C@H]21)C[C@@]1(CCCc2cc(Cl)ccc21)CO3 [Example 363]	46.5	0.042	
CO[C@H]1/C=C/C[C@H](C)C[S@@](=O)(NC(=O)NC23CC(OC)(C2)C3)=NC(=O)c2ccc3c(c2)N(C[C@@H]2CC[C@H]21)C[C@@]1(CCCc2cc(Cl)ccc21)CO3 [Example 361]	44	0.055	
CO[C@H]1/C=C/C[C@H](C)[C@@H](C)[S@@](=O)(NC(=O)c2cc3n(c2)C[C@H](C)OC3)=NC(=O)c2ccc3c(c2)N(C[C@@H]2CC[C@H]21)C[C@@]1(CCCc2cc(Cl)ccc21)CO3 [Example 218]	85.5	0.345	
COCC(=O)NS1(=O)=NC(=O)c2ccc3c(c2)N(C[C@@H]2CC[C@H]2[C@@H](OC)/C=C/CCC1)C[C@@]1(CCCc2cc(Cl)ccc21)CO3 (single isomer, unassigned) [Example 7]		1.2	4800
CO[C@H]1/C=C/C[C@H](C)C[S@@](=O)(NC(=O)N2CC(OC(=O)N3CCCCC3)C2)=NC(=O)c2ccc3c(c2)N(C[C@@H]2CC[C@H]21)C[C@@]1(CCCc2cc(Cl)ccc21)CO3 [Example 385]	222	0.128	
COC(=O)N1CCn2cc(C(=O)N[S@@]3(=O)=NC(=O)c4ccc5c(c4)N(C[C@@H]4CC[C@H]4[C@@H](OC)/C=C/C[C@H](C)C3)C[C@@]3(CCCc4cc(Cl)ccc43)CO5)cc2C1 [Example 177]	46.4	0.129	
CCN(C)C(=O)N[S@]1(=O)=NC(=O)c2ccc3c(c2)N(C[C@@H]2CC[C@H]2[C@@H](OC)/C=C/CCC1)C[C@@]1(CCCc2cc(Cl)ccc21)CO3 [Example 76]	6330	10.5	
CO[C@H]1CCC[C@H](C)C[S@@](=O)(NC(=O)NC2CC2)=NC(=O)c2ccc3c(c2)N(C[C@@H]2CC[C@H]21)C[C@@]1(CCCc2cc(Cl)ccc21)CO3 [Example 170]	210	0.06	
CO[C@H]1/C=C/CCC[S@@](=O)(NC(=O)CCc2cnoc2)=NC(=O)c2ccc3c(c2)N(C[C@@H]2CC[C@H]21)C[C@@]1(CCCc2cc(Cl)ccc21)CO3 [Example 57]	596	0.2	
CO[C@H]1/C=C/C[C@H](C)C[S@@](=O)(NC(=O)C2CC(C)(OC)C2)=NC(=O)c2ccc3c(c2)N(C[C@@H]2CC[C@H]21)C[C@@]1(CCCc2cc(Cl)ccc21)CO3 (stereo partly shown) [Example 169]	61	0.048	
CO[C@H]1/C=C/CCC[S@@](=O)(NC(=O)C2CCC2)=NC(=O)c2ccc3c(c2)N(C[C@@H]2CC[C@H]21)C[C@@]1(CCCc2cc(Cl)ccc21)CO3 [Example 31]	2590	3.1	

More lines, now with the values ahead:

EC50 ([1]; Homo sapiens, SK-BR-3, 72 h) [nM]	IC50 [2] [nM]	EC50 ([1]; 72 hours) [nM]	Structure (SMILES)
210	0.091		CO[C@H]1/C=C/C[C@H](C)C[S@@](=O)(NC(=O)COC2CC2)=NC(=O)c2ccc3c(c2)N(C[C@@H]2CC[C@H]21)C[C@@]1(CCCc2cc(Cl)ccc21)CO3 [Example 445]
43.6	0.057		COC[C@@H]1Cn2cc(C(=O)N[S@@]3(=O)=NC(=O)c4ccc5c(c4)N(C[C@@H]4CC[C@H]4[C@@H](OC)/C=C/C[C@H](C)C3)C[C@@]3(CCCc4cc(Cl)ccc43)CO5)cc2CO1 [Example 306]
20	0.07		CO[C@H]1/C=C/[C@H](OC)[C@H](C)C[S@@](=O)(NC(=O)c2cc(CN3CCN4CCOC[C@@H]4C3)n(C)c2)=NC(=O)c2ccc3c(c2)N(C[C@@H]2CC[C@H]21)C[C@@]1(CCCc2cc(Cl)ccc21)CO3 [Example 399]
22	0.04		COc1nn(C)cc1C(=O)N[S@@]1(=O)=NC(=O)c2ccc3c(c2)N(C[C@@H]2CC[C@H]2[C@@H](OC)/C=C/[C@H](OCCN2CCOCC2)[C@H](C)C1)C[C@@]1(CCCc2cc(Cl)ccc21)CO3 [Example 295]
113	0.161		CO[C@H]1/C=C/C[C@H](C)C[S@@](=O)(NC(=O)[C@H](O)Cc2ccccc2)=NC(=O)c2ccc3c(c2)N(C[C@@H]2CC[C@H]21)C[C@@]1(CCCc2cc(Cl)ccc21)CO3 [Example 122]
197	0.092		COc1nn(C)cc1C(=O)N[S@@]1(=O)=NC(=O)c2ccc3c(c2)N(C[C@@H]2CC[C@H]2[C@@H](OC(=O)N(C)C)/C=C/C[C@H](C)C1)C[C@@]1(CCCc2cc(Cl)ccc21)CO3 [Example 404]
57	0.076		CO[C@H]1/C=C/C[C@H](C)C[S@@](=O)(NC(=O)c2cn(C)nc2N(C)C)=NC(=O)c2ccc3c(c2)N(C[C@@H]2CC[C@H]21)C[C@@]1(CCCc2cc(Cl)ccc21)CO3 [Example 213]
374	0.223		CO[C@H]1/C=C/C[C@H](C)C[S@@](=O)(NC(=O)Nc2ccccn2)=NC(=O)c2ccc3c(c2)N(C[C@@H]2CC[C@H]21)C[C@@]1(CCCc2cc(Cl)ccc21)CO3 [Example 441]
233	0.081		CO[C@H]1/C=C/C[C@H](C)C[S@@](=O)(NC(=O)c2cn(C)nc2OCC2OCCO2)=NC(=O)c2ccc3c(c2)N(C[C@@H]2CC[C@H]21)C[C@@]1(CCCc2cc(Cl)ccc21)CO3 [Example 356]
90.2	0.098		COc1nn(C)cc1C(=O)N[S@@]1(=O)=NC(=O)c2ccc3c(c2)N(C[C@@H]2CC[C@H]2[C@@H](OC)/C=C/[C@H](OCc2ccccn2)[C@H](C)C1)C[C@@]1(CCCc2cc(Cl)ccc21)CO3 [Example 402]
